# Key:
# [1] = tested on: C. albicans strain SC5314 (Wild Type); assay: Growth of C. albicans with ManSIFG and 0.2M CaCl2, cell count by hemocytometer; format: cell-based, Candida albicans; conditions: 0.2M CaCl2 alone
# Experimental: This signaling pathway is considered to regulate synthesis of chitin, an important carbohydrate which is part of the cell wall and septum, which is formed during cell division. C. albicans strain SC5314 (wild type) was cultured from frozen stock in Yeast Nitrogen Base media (YNB) with 2% glucose and grown overnight at 30° C. with shaking at 225 rpm. Cell concentration was determined by hemocytometer. […] […] (62.5 μg/ml) was added to test cultures but not to control cultures. The experiment was done in triplicates. The culture tubes were placed on a nutator inside a 30° C. incubator and grown for 24 hours. Time points were taken at 6, 12, and 24 hours. Cell concentration was monitored by hemocytometer at 6, 12, and 24-hour time points. Statistical analysis was done using two-tailed Student's t-Test.
# [2] = tested on: C. albicans wild type strain (SC5314); assay: Checkerboard synergy assay / MIC analysis, OD600; format: cell-based, Candida albicans
# Experimental: (§1) The C. albicans wild type strain (SC5314) was cultured from frozen stock in Yeast Peptone Dextrose (YPD) and grown overnight at 30° C. with shaking at 225 rpm. Cell concentration was determined by hemocytometer and used to adjust the inoculum to 2×10^3 cells/ml in fresh YPD, which is 2× the desired final concentration. 50 ul of the inoculum was added to each well for a final culture volume of 100 ul. The final cell concentration was 1×10^3 cells/ml. The plate was sealed with plastic film and placed in a BioTek Synergy HT plate reader for 24 hours at 37° C. At each time point, the plate was shaken for 10 seconds prior to each OD600 reading.
# [3] = tested on: wildtype C. albicans strain SC5314; assay: Growth of C. albicans in YNB, cell count by hemocytometer; format: cell-based, Candida albicans
# Experimental: (§2) The wildtype C. albicans strain SC5314 was cultured from frozen stock in Yeast Nitrogen Base (YNB) media with 2% glucose and grown overnight at 30° C. with shaking at 225 rpm as described previously (Chinnici et al., 2019). Cell concentration of the overnight culture was determined by hemocytometer. This was used to inoculate fresh cultures with a final starting concentration of 5×10^5 cells/ml in fresh YNB contain either no treatment (control) or various concentrations (31.25, 62.5, or 125 μg/ml) of the mannose disaccharide inhibitor. The cultures were run in duplicates and incubated at 30° C. on a nutator. Cell concentration was analyzed by counting on hemocytometer at 10, 14, 18, and 24-hour time points. Statistical analysis was done using two-tailed Student's t-Test.
# as §2, with “previously.” for “previously (Chinnici et al., 2019).”, “62.5 μg/ml” for “various concentrations (31.25, 62.5, or 125 μg/ml)”, “D-Mannose.” for “the mannose disaccharide inhibitor.”
# [4] = tested on: C. albicans strain SC5314 (Wild Type); assay: Germ tube / hypha formation of C. albicans induced by 20% FBS, count by hemocytometer; format: cell-based, Candida albicans; conditions: 62.5 μg/ml, 37° C., significantly (FIG. 3)
# [5] = tested on: Trychophyton rubrum (ATCC-MYA-4607); assay: MIC testing against toe nail fungus; format: cell-based, Trichophyton rubrum; conditions: various concentrations, SDB, 25° C., 6 days (FIG. 10)
# Experimental: Effect […] on other fungal cells. Trichophyton rubrum is the fungal pathogen that causes onychomycosis or toe nail fungus. […] The experiment was performed in triplicates. […] A 50 ul inoculum was added to each well for a final culture volume of 100 ul. […] The plate was cultured for 6 days at 25° C. and then imaged using an iPhone camera.
# [6] = tested on: Candida parapsilosis (ATCC-22019) wild type strain; assay: Antifungal activity against C. parapsilosis; format: cell-based; conditions: at very low concentrations (FIG. 12)
# Experimental: as §1, with “ManSIFG MIC analysis for Candida albicans and effects of CaCl2. A checkerboard synergy assay was used to test ManSIFG and CaCl2) each by themselves and in various combinations of each other. Drug concentrations to be tested were prepared 4× concentrated and dispensed into a sterile 96-well culture plate. 25 ul of each ManSIFG dilution was dispensed in each column, such that concentrations increased along the x-axis of the plate. 25 ul of each CaCl2 dilution was dispensed in each row, such that concentrations increased along the y-axis of the plate. The C.” for “The C.”
# Effect of ManSIFG on additional Candida species. Other Candida species were tested. Candida parapsilosis (ATCC-22019) wild type strain was used. Methods are same as described above. […]
# [7] = tested on: Candida krusei, (ATCC-6258) wild type strain; assay: Antifungal activity against C. krusei; format: cell-based; conditions: even at very low concentrations (FIG. 13)
# [8] = tested on: Candida glabrata (ATCC-2001) wild type strain; assay: Antifungal activity against C. glabrata; format: cell-based; conditions: FIG. 14
# [9] = tested on: Candida tropicalis (ATCC-750) wild type strain; assay: Antifungal activity against C. tropicalis; format: cell-based; conditions: FIG. 15
smiles,measurement,setting,value
"[Ca+2].[Cl-].[Cl-] [CaCl2, Calcium chloride]",growth of C. albicans as compared to control cultures,[1]; 12 hours (FIG. 4A),significantly inhibit
same,growth of C. albicans as compared to control cultures,[1]; 24 hours (FIG. 4B),significantly inhibit
same,antifungal effect of CaCl2 by itself,[2]; very high concentrations (FIG. 9),has an antifungal effect
"O=C[C@@H](O)[C@@H](O)[C@H](O)[C@H](O)CO [D-Mannose, reference compound]",growth of C. albicans wild type as compared to control cultures,"[3]; D-Mannose 62.5 μg/ml, 10, 14, 18 and 24-hour time points",not inhibited
"OC[C@H]1O[C@H](SC[C@H]2CNC[C@@H](O)[C@@H]2O)[C@@H](O)[C@@H](O)[C@@H]1O [ManSIFG, (2R,3S,4S,5S,6R)-2-((((3S,4R,5R)-4,5-dihydroxypiperidin-3-yl)methyl)thio)-6-(hydroxymethyl)tetrahydro-2H-pyran-3,4,5-triol]",growth of C. albicans wild type as compared to control cultures,"[3]; 62.5 μg/ml, 10 hours, significantly (FIG. 2)",inhibited
same,"growth of C. albicans, difference between control and inhibitor cultures","[3]; 62.5 μg/ml, later time points (14, 18, 24 hours)",no significant difference
same,formation of germ tubes as compared to control cultures,[4]; 12 hours,inhibited
same,formation of germ tubes as compared to control cultures,[4]; 24 hours,inhibited
same,MIC,"[2]; Candida albicans, SC5314, YPD, 37° C., 24 hours, OD600 (FIG. 7)",31.2 to 62.5 µg/mL
same,effect of addition of CaCl2 on antifungal activity of ManSIFG,[2]; ManSIFG 7.81 μg/ml plus 100 mg/ml CaCl2 vs CaCl2 alone (FIG. 8),improves the antifungal activity
same,inhibitory effect against Trychophoton rubrum,[5],no inhibitory effect
same,antifungal activity against Candida parapsilosis,[6],has antifungal activity
same,antifungal activity against Candida krucei,[7],has antifungal activity
same,antifungal activity against Candida glabrata,[8],has antifungal activity
same,antifungal activity against Candida tropicalis,[9],has antifungal activity

# Source: US12685744B2, “Anti-fungal compositions and methods for using same” (The Research Foundation for The State University of New York, priority 2019, dated 2026)
